Legend:
Human recombinant sEH = Human recombinant sEH (Homo sapiens (Human), UniProt P34913); experiment: Soluble epoxide hydrolase inhibition (PHOME fluorescent substrate); type: biochemical; details: Table 1 head prints μM (Table 2 prints nM for same numbers); read-out: sEHi IC50
Description: Compounds were tested for their ability to inhibit recombinant soluble epoxide hydrolase (sEH) protein. The assay utilizes (3-Phhenyl-oxiranyl)-acetic acid cyano-(6-methoxy-naphthalen-2-yl)-methyl ester (PHOME), a sensitive substrate for sEH that can be used to monitor the activity of both human and murine enzymes. […] Human recombinant sEH was incubated with substrate and compounds ranging in concentration from 0.1 to 1000 nM.

bovine coronary artery = experiment: Vasorelaxant activity in bovine coronary artery rings precontracted with U-46619; type: cell-based; details: Bos taurus
Description: Vasorelaxant activity was measured in bovine coronary artery. Bovine hearts were obtained and the left anterior descending coronary artery was dissected and cleaned of connective tissue. Vessels of 1 mm diameter were cut into rings of 3 mm width as previously described (3, 27, 39). […] The vessels were suspended from a pair of stainless steel hooks in a 6-ml water-jacketed organ chamber. […] One hook was anchored to a steel rod and the other hook to a force transducer (model FT-03C; Grass Instruments, West Warwick, R.I.). Tension of the vessel was measured by an ETH-400 bridge amplifier, and the data were acquired with a MacLab 8e analog-to-digital converter and MacLab software version 3.5.6 (AD Instruments, Milford, Mass.) and stored on a Macintosh computer for subsequent data analysis.
Basal tension was set at the length-tension maximum of 3.5 g and equilibrated for 1.5 h. KCl (40 mM) was added to the chamber until reproducible maximal contractions were maintained. […] Cumulative additions of compounds were added to the chamber. Between concentration-response curves, the chambers were rinsed with fresh Krebs buffer, 40 mM KCl was administered to determine the maximum contraction, and the vessels were rinsed. Consecutive concentration-response curves were performed with 14,15-EET followed by a concentration-response curve to a compound. The experiment was always repeated with the order of the agonists reversed. […] The relaxation was plotted versus compound concentration and the EC50 determined utilizing statistical software.

Chain of Human recombinant sEH (P34913 whole entry): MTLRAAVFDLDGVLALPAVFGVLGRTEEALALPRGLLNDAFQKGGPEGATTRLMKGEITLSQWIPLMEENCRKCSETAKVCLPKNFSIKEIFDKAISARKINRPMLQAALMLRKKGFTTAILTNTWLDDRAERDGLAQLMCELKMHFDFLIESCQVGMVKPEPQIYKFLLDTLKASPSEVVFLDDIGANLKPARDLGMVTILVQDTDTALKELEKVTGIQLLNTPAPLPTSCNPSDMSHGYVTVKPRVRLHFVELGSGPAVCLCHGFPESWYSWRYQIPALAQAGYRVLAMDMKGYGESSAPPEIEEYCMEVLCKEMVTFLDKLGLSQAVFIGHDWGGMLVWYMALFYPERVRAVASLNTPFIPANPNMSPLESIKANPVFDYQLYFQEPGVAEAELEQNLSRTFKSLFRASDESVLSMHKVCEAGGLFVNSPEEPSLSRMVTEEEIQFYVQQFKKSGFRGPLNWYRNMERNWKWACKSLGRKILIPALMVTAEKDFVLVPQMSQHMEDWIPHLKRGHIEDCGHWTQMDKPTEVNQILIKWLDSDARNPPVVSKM

IC50 (Human recombinant sEH): 0.282 µM | EC50 (bovine coronary artery; bovine coronary artery, read-out: Vascular Relax. EC50): 3.3 µM | melting point: 113.7 to 113.8 °C
SMILES: CCCCCNC(=O)NCCCC/C=C\CCOc1cccc2sc(NC(C)=O)nc12 [Compound 33, N-(4-(8-(3-n-Pentylureido)oct-3(Z)-enyloxy)benzo[d]thiazol-2-yl)acetamide]
activation at 10 µM (bovine coronary artery; 10 μM, 100% relaxation = basal pre-U-46619 tension, read-out: Vascular Relax. % (10 μM)): 73%

— patent US9127027B2, “Epoxyeicosatrienoic acid analogs and methods of making and using the same” (The Medical College of Wisconsin, Inc., priority 2011, dated 2015)
